From patent publication US10861154B2, “Cell analysis system, cell analysis program and cell analysis method” (Sony Corporation, priority 2013, dated 2020)

Key:
Type in all cases: cell-based
[1] = test system: iPS cell-derived neural cells “iCell Neuron”; test: Motion amount of iCell Neuron after adding ionotropic receptor antagonists (Example 2); details: 5 μM, FIGS. 9 and 10
Description: (§1) On the microscope having the chamber, iPS cell-derived neural cells “iCell Neuron” (produced by Cellular Dynamics International, Inc.) and rat cerebral cortex primary culture (produced by Lonza, Inc.) were each set. Video images of the cells, of 260 frames at object lens magnification 20× and at 7.5 fps (for iCell Neuron) or 5 fps (for rat cerebral cortex primary culture), were taken and were obtained as cell images. A variety of ionotropic receptor antagonists were added to each of the cell cultures. The ionotropic receptor antagonist was Bicuculline which is GABA (gamma-aminobutyrate) receptor antagonist; or CNQX (6-cyano-7-nitroquinoxaline-2,3-dione) which is non-NMDA Glu (glutamate) receptor antagonist.
(§2) The cell image was analyzed with the use of the above-described cell analysis system. Specifically, the motion information was extracted by block matching, using each of the neural cells in the cell image as the extraction range, and the motion amount was calculated from the motion information. FIGS. 9 to 12 are graphs showing results of the calculation of the motion amount. […] Note that the motion amounts shown in the respective figures are average values of the calculated motion amounts for a plurality of detail parts of nerves. […]

[2] = test system: rat cerebral cortex primary culture; test: Motion amount of rat cerebral cortex primary culture after adding ionotropic receptor antagonists (Example 2)
Description: as §1, §2

[3] = test system: rat cerebral cortex primary culture; test: Motion amount of rat cerebral cortex primary culture after adding aquaporin inhibitor (Example 3); details: 5 μm of HgCl2, FIG. 15
Description: Further, on the microscope having the chamber, rat cerebral cortex primary culture (produced by Lonza, Inc.) was set. A video image of the cells, of 260 frames at object lens magnification 20× and at 7.5 fps (for iCell Neuron) or 5 fps (for rat cerebral cortex primary culture), was taken and was obtained as a cell image. To the cell culture, […] of HgCl2 as aquaporin inhibitor was added.
The cell image was analyzed with the use of the above-described cell analysis system. Specifically, the motion information was extracted by block matching, using each of the neural cells in the cell image as the extraction range, and the motion amount was calculated from the motion information. FIG. 15 is a graph showing a result of the calculation of the motion amount. In the figure, “0 min” in the abscissa is the time of the addition of the […], and the ordinate indicates a relative motion amount when the value before adding HgCl2 (at 0 min) is assumed to be 1.

metabolism of the cell = test: Effect on metabolism of the cell; details: 5 μm of HgCl2
[4] = test system: rat cerebral cortex primary culture; test: Motion amount of rat cerebral cortex primary culture on change in osmotic pressure by galactose (Example 3); details: galactose at a final concentration of 2.5%, compared with no galactose, FIG. 14
Description: On the microscope having the chamber, rat cerebral cortex primary culture (produced by Lonza, Inc.) was set. A video image of the cells, of 260 frames at object lens magnification 20× and at 5 fps, was taken and was obtained as a cell image. To the cell culture, galactose at a final concentration of 2.5% was added. The cell image was analyzed with the use of the above-described cell analysis system. Specifically, the motion information was extracted by block matching, using each of the neural cells in the cell image as the extraction range, and the motion amount was calculated from the motion information.

N#Cc1cc2c(cc1[N+](=O)[O-])=NC(=O)C(=O)N=2 [CNQX, 6-cyano-7-nitroquinoxaline-2,3-dione]
relative motion amount after adding the ionotropic receptor antagonist, value at 0 min = 1 [1]: transiently reduced
relative motion amount after adding the ionotropic receptor antagonist, value at 0 min = 1 ([2]; 5 μM, FIGS. 11 and 12): decreased
motion amount for each individual cell ([2]; 5 μm of CNQX, FIG. 13): the cells in which the motion amount was decreased by an influence of the Glu receptor antagonist and the cells in which the motion amount was not decreased

[Cl][Hg][Cl] [HgCl2]
relative motion amount after adding HgCl2, value at 0 min = 1 [3]: transiently reduced
inhibition of metabolism of the cell (metabolism of the cell): does not inhibit metabolism of the cell

O=C[C@H](O)[C@@H](O)[C@@H](O)[C@H](O)CO [galactose]
median value of the motion amounts for the extraction ranges [4]: almost completely reduced
